According to publication PMC6299216, “Gain-of-Function Mutations in the Phospholipid Flippase MprF Confer Specific Daptomycin Resistance” (mBio, 2018):
≈ marks a conversion by molar mass, not a printed value. Ends that are not written are not given here.

What was measured:
[1] = tested on: S. aureus ΔmprF mutant with or without functional MprF; experiment: MIC, broth microdilution: mprF deletion mutant versus functional MprF; format: cell-based, Staphylococcus aureus; conditions: broth microdilution in Mueller-Hinton broth, 24-well plate, shaking; friulimicin B with 50 mg/liter CaCl2; three independent experiments (Fig. 4A)
Source text: (§1) The common laboratory strain, methicillin-susceptible S. aureus SA113 (ATCC 35556) and its mprF knockout derivative SA113ΔmprF have been described recently ([17]). Point mutations in mprF were introduced by site-directed mutagenesis in Escherichia coli using E. coli/S. aureus shuttle vector pRB474 bearing mprF via the use of a QuikChange kit (Stratagene, La Jolla, CA, USA) (see Table S3 in the supplemental material), as described recently ([20]). Mutated derivatives of mprF were cloned in pRB474mprF and transferred into strain SA113ΔmprF. Expression of the pRB474mprF variants was mediated by the use of constitutive Bacillus subtilis promoter vegII. Plasmids were maintained with 10 μg/ml chloramphenicol in all studies, with the exception of the MIC assays.
(§2) The MICs of daptomycin, bacitracin, polymyxin B, vancomycin, and oxacillin were determined with MIC test strips from Liofilchem according to the manufacturer’s advice. The MICs of friulimicin B, nisin, and gallidermin were determined by broth microdilution in Mueller-Hinton broth (MHB) in a 24-well plate under shaking conditions. Friulimicin B and daptomycin MICs were determined in the presence of 50 mg/liter CaCl2. Other MICs were determined in the presence of 50 mg/liter CaCl2 when indicated.

[2] = tested on: S. aureus ΔmprF mutant expressing V351E-MprF; experiment: MIC, broth microdilution; format: cell-based, Staphylococcus aureus; conditions: V351E mutation; broth microdilution in MHB; 50 mg/liter CaCl2; three independent experiments (Fig. 4A)
Source text: as §1, §2

[3] = tested on: S. aureus ΔmprF mutant expressing T345A-MprF; experiment: MIC, broth microdilution; format: cell-based, Staphylococcus aureus; conditions: T345A mutation; broth microdilution in MHB; 50 mg/liter CaCl2; three independent experiments (Fig. 4A)
Source text: as §1, §2

[4] = tested on: S. aureus ΔmprF mutant with or without functional MprF; experiment: MIC, MIC test strips: mprF deletion mutant versus functional MprF; format: cell-based, Staphylococcus aureus; conditions: daptomycin with 50 mg/liter CaCl2, three independent experiments (Fig. 4A)
Source text: as §1, §2

[5] = tested on: S. aureus 113 (SA113) mprF mutant expressing MprF with S295L, P314L, S337L, I420N or L826F; experiment: MIC, MIC test strips (Liofilchem); format: cell-based, Staphylococcus aureus; conditions: mutations S295L, I420N and L826F, 50 mg/liter CaCl2 (Fig. 1B)
Source text: as §1, §2

[6] = tested on: S. aureus 113 (SA113) mprF mutant expressing parental (wild-type) MprF (pRBmprF); format: cell-based, Staphylococcus aureus; conditions: parental MprF sequence on plasmid in SA113 mprF mutant; MIC test strips; 50 mg/liter CaCl2; mean of at least five independent experiments (Fig. 1B)
Source text: as §1, §2

[7] = tested on: S. aureus 113 (SA113) mprF mutant expressing V351E-MprF (pRB-V351E); format: cell-based, Staphylococcus aureus; conditions: V351E mutation in MprF on plasmid in SA113 mprF mutant; MIC test strips; 50 mg/liter CaCl2; mean of at least five independent experiments (Fig. 1B)
Source text: as §1, §2

[8] = tested on: S. aureus 113 (SA113) mprF mutant expressing T345A-MprF (pRB-T345A); format: cell-based, Staphylococcus aureus; conditions: T345A mutation in MprF on plasmid in SA113 mprF mutant; MIC test strips; 50 mg/liter CaCl2; mean of at least five independent experiments (Fig. 1B)
Source text: as §1, §2

[9] = tested on: S. aureus with chromosomal deletion of MprF; conditions: cited from earlier work
Source text: Daptomycin is the first approved drug of a new class of calcium-dependent lipopeptide antibiotics, whose entire mode of action is still not fully understood ([6], [8]). It interacts with phosphatidylglycerol (PG) and interferes with bacterial fluid membrane microdomains, which leads to inhibition of cell wall synthesis ([9]). However, it is unclear if its activity requires a specific docking molecule in the membrane ([9], [10]). How point mutations in different S. aureus proteins contribute to or cause DAP-R remains equally elusive ([6]). Several proteins involved in the synthesis, regulation, ...

[10] = tested on: S. aureus ΔmprF mutant expressing D71A-T345A MprF (pRB-D71A-T345A); experiment: MIC, MIC test strips, flippase-inactivated MprF; format: cell-based, Staphylococcus aureus
Source text: as §1, §2

[11] = tested on: S. aureus ΔmprF mutant expressing E206A-T345A MprF (pRB-E206A-T345A); experiment: MIC, MIC test strips, flippase-inactivated MprF; format: cell-based, Staphylococcus aureus
Source text: as §1, §2

[12] = tested on: S. aureus ΔmprF mutant expressing R112A-T345A MprF (pRB-R112A-T345A); experiment: MIC, MIC test strips, flippase-inactivated MprF; format: cell-based, Staphylococcus aureus
Source text: as §1, §2

## nisin (ITSISLCTPGCKTGALMGCNMKTATCHCSIHVSK; also: lantibiotic: thioether rings and dehydro residues, places not given here; UniProt P13068 24-57, looked up)
[1]
  ability to inhibit S. aureus growth (MIC) with functional MprF versus mprF deletion mutant: reduced in the presence of a functional MprF protein

## friulimicin B
[2]
  cross-resistance (MIC versus wild-type MprF): cross-resistance
[3]
  cross-resistance (MIC versus wild-type MprF): cross-resistance
[1]
  ability to inhibit S. aureus growth (MIC) with functional MprF versus mprF deletion mutant: reduced in the presence of a functional MprF protein

## Cc1onc(-c2ccccc2)c1C(=O)N[C@@H]1C(=O)N2[C@@H]1SC(C)(C)[C@@H]2C(=O)O [oxacillin]
[4]
  ability to inhibit S. aureus growth (MIC) with functional MprF versus mprF deletion mutant: not affected by MprF

## vancomycin
[4]
  ability to inhibit S. aureus growth (MIC) with functional MprF versus mprF deletion mutant: reduced in the presence of a functional MprF protein

## CCCCCCCCCC(=O)N[C@@H](Cc1c[nH]c2ccccc12)C(=O)N[C@H](CC(N)=O)C(=O)N[C@@H](CC(=O)O)C(=O)N[C@@H]1C(=O)NCC(=O)N[C@@H](CCCN)C(=O)N[C@@H](CC(=O)O)C(=O)N[C@H](C)C(=O)N[C@@H](CC(=O)O)C(=O)NCC(=O)N[C@H](CO)C(=O)N[C@@H]([C@H](C)CC(=O)O)C(=O)N[C@@H](CC(=O)c2ccccc2N)C(=O)O[C@@H]1C [daptomycin]
[5]
  daptomycin susceptibility compared to the parental MprF sequence: did not alter daptomycin susceptibility
[4]
  ability to inhibit S. aureus growth (MIC) with functional MprF versus mprF deletion mutant: reduced in the presence of a functional MprF protein
[6]
  MIC: 1 µg/mL (≈ 0.617 µM)
[7]
  MIC: 3 µg/mL (≈ 1.85 µM)
[8]
  MIC: 3 µg/mL (≈ 1.85 µM)
[9]
  susceptibility after chromosomal deletion of MprF: hypersusceptibility
[10]; T345A in combination with D71A, 50 mg/liter CaCl2, three independent experiments (Fig. 5B)
  ability of T345A to increase the MIC of daptomycin: not able to increase the daptomycin MIC
[11]; T345A in combination with R206A (so in the source), 50 mg/liter CaCl2, three independent experiments (Fig. 5B)
  ability of T345A to increase the MIC of daptomycin: not able to increase the daptomycin MIC
[12]; T345A in combination with R112A, 50 mg/liter CaCl2, three independent experiments (Fig. 5B)
  ability of T345A to increase the MIC of daptomycin: only slightly increased MIC

## polymyxin B
[4]
  ability to inhibit S. aureus growth (MIC) with functional MprF versus mprF deletion mutant: reduced in the presence of a functional MprF protein

## bacitracin
[4]
  ability to inhibit S. aureus growth (MIC) with functional MprF versus mprF deletion mutant: reduced in the presence of a functional MprF protein
[10]; T345A with flippase-inactivating mutation D71A, three independent experiments (Fig. 5A)
  MIC of bacitracin as indicator of flippase activity, compared to strains expressing a functional MprF: hypersusceptible
[11]; T345A with flippase-inactivating mutation E206A, three independent experiments (Fig. 5A)
  MIC of bacitracin as indicator of flippase activity, compared to strains expressing a functional MprF: hypersusceptible
[12]; T345A with flippase-inactivating mutation R112A, three independent experiments (Fig. 5A)
  MIC of bacitracin as indicator of flippase activity, compared to strains expressing a functional MprF: hypersusceptible

## gallidermin (IASKFLCTPGCAKTGSFNSYCC; also: lantibiotic: thioether rings and dehydro residues, places not given here; UniProt P21838 31-52, looked up)
[1]
  ability to inhibit S. aureus growth (MIC) with functional MprF versus mprF deletion mutant: reduced in the presence of a functional MprF protein
